Data: the NIST ThermoML archive (doi:10.1016/j.jct.2005.03.027)

What was measured:
[1] = xn = mol fraction of the nth substance listed; settings: 101 kPa, Liquid
[2] = refractive index (Na D-line) (dimensionless); settings: 293.15 K; 101.33 kPa; Liquid; Standard Abbe refractometry
[3] = 101 kPa, Liquid

BrC(Br)C(Br)Br [1,1,2,2-tetrabromoethane] + CCCCCCCCO
[1]
Settings | mass density, 293.15 K [kg/m3] | mass density, 303.15 K [kg/m3] | viscosity, 293.15 K [mPa·s] | viscosity, 303.15 K [mPa·s]
x1 = 0.099 | – | 980.93 | – | 6.446
x1 = 0.101 | 989.26 | – | 9.28 | –
x1 = 0.1999 | – | 1151.32 | – | 6.535
x1 = 0.2013 | 1161.15 | – | 9.347 | –
x1 = 0.2997 | 1338.99 | – | 9.426 | –
x1 = 0.3001 | – | 1327.63 | – | 6.646
x1 = 0.3994 | 1529.17 | – | 9.527 | –
x1 = 0.3995 | – | 1516.19 | – | 6.774
x1 = 0.5002 | 1732.98 | – | 9.661 | –
x1 = 0.5006 | – | 1718.29 | – | 6.947
x1 = 0.5987 | – | 1931.52 | – | 7.155
x1 = 0.6003 | 1947.95 | – | 9.831 | –
x1 = 0.6993 | – | 2157.22 | – | 7.398
x1 = 0.6998 | 2175.4 | – | 10.04 | –
x1 = 0.799 | – | 2399.36 | – | 7.708
x1 = 0.7998 | 2419.28 | – | 10.32 | –
x1 = 0.8992 | – | 2662.77 | – | 8.065
x1 = 0.9011 | 2684.42 | – | 10.63 | –
x1 = 1 | 2963.2 | 2939.86 | 10.94 | 8.413

CCCCCCO [hexan-1-ol] + BrC(Br)C(Br)Br
[1], x2 = 0
Settings | mass density [kg/m3] | viscosity [mPa·s]
293.15 K | 818.92 | 5.37
303.15 K | 811.73 | 3.744

CCCCCCO [hexan-1-ol]
Settings | refractive index
[2] | 1.41826

[3]
Settings | mass density [kg/m3] | viscosity [mPa·s]
293.15 K | 818.92 | 5.37
303.15 K | 811.73 | 3.744

BrC(Br)C(Br)Br [1,1,2,2-tetrabromoethane] + CCCCCCO
[1]
Settings | mass density, 293.15 K [kg/m3] | mass density, 303.15 K [kg/m3] | viscosity, 293.15 K [mPa·s] | viscosity, 303.15 K [mPa·s]
x1 = 0.1001 | 1021.6 | 1012.63 | 5.764 | 4.031
x1 = 0.2007 | 1227.75 | 1216.94 | 6.116 | 4.348
x1 = 0.3004 | 1434.26 | 1421.62 | 6.633 | 4.709
x1 = 0.4004 | 1643.89 | 1629.48 | 7.123 | 5.112
x1 = 0.5005 | 1856.54 | 1840.42 | 7.644 | 5.542
x1 = 0.6008 | 2072.22 | 2054.51 | 8.195 | 6.009
x1 = 0.6999 | 2288.24 | 2269.06 | 8.786 | 6.508
x1 = 0.8012 | 2512.37 | 2491.76 | 9.433 | 7.068
x1 = 0.9001 | 2734.51 | 2712.53 | 10.14 | 7.699
x1 = 1 | 2963.2 | 2939.86 | 10.94 | 8.413

CCCCCCCCCCO [decan-1-ol] + BrC(Br)C(Br)Br
[1], x2 = 0
Settings | mass density [kg/m3] | viscosity [mPa·s]
293.15 K | 829.7 | 14.54
303.15 K | 822.85 | 9.676

BrC(Br)C(Br)Br [1,1,2,2-tetrabromoethane]
Settings | refractive index
[2] | 1.63535

[3]
Settings | mass density [kg/m3] | viscosity [mPa·s]
293.15 K | 2963.2 | 10.94
303.15 K | 2939.86 | 8.413

CCCCCCCCCCO [decan-1-ol]
Settings | refractive index
[2] | 1.43706

[3]
Settings | mass density [kg/m3] | viscosity [mPa·s]
293.15 K | 829.7 | 14.54
303.15 K | 822.85 | 9.676

CCCCCO [pentan-1-ol]
Settings | refractive index
[2] | 1.40995

[3]
Settings | mass density [kg/m3] | viscosity [mPa·s]
293.15 K | 815.03 | 4.052
303.15 K | 807.6 | 2.926

CCCCCO [pentan-1-ol] + BrC(Br)C(Br)Br
[1], x2 = 0
Settings | mass density [kg/m3] | viscosity [mPa·s]
293.15 K | 815.03 | 4.052
303.15 K | 807.6 | 2.926

BrC(Br)C(Br)Br [1,1,2,2-tetrabromoethane] + CCCCCCCO
[1]
Settings | mass density, 293.15 K [kg/m3] | mass density, 303.15 K [kg/m3] | viscosity, 293.15 K [mPa·s] | viscosity, 303.15 K [mPa·s]
x1 = 0.099 | 1001.11 | 992.57 | 7.314 | 5.033
x1 = 0.1999 | 1189.38 | 1179.18 | 7.577 | 5.262
x1 = 0.3001 | 1383.2 | 1371.29 | 7.86 | 5.513
x1 = 0.3995 | 1582.25 | 1568.62 | 8.171 | 5.801
x1 = 0.5006 | 1792.24 | 1776.88 | 8.531 | 6.128
x1 = 0.5987 | 2003.6 | 1986.59 | 8.915 | 6.484
x1 = 0.6993 | 2229.07 | 2210.42 | 9.351 | 6.886
x1 = 0.799 | 2461.79 | 2441.56 | 9.836 | 7.336
x1 = 0.8992 | 2706 | 2684.21 | 10.38 | 7.862
x1 = 1 | 2963.2 | 2939.86 | 10.94 | 8.413

CCCCCCCO [heptan-1-ol] + BrC(Br)C(Br)Br
[1], x2 = 0
Settings | mass density [kg/m3] | viscosity [mPa·s]
293.15 K | 822.39 | 7.058
303.15 K | 815.41 | 4.821

CCCCCCCO [heptan-1-ol]
Settings | refractive index
[2] | 1.42397

[3]
Settings | mass density [kg/m3] | viscosity [mPa·s]
293.15 K | 822.39 | 7.058
303.15 K | 815.41 | 4.821

CCCCCCCCO [octan-1-ol] + BrC(Br)C(Br)Br
[1], x2 = 0
Settings | mass density [kg/m3] | viscosity [mPa·s]
293.15 K | 824.99 | 9.219
303.15 K | 818.09 | 6.358

BrC(Br)C(Br)Br [1,1,2,2-tetrabromoethane] + CCCCCO
[1]
Settings | mass density, 293.15 K [kg/m3] | mass density, 303.15 K [kg/m3] | viscosity, 293.15 K [mPa·s] | viscosity, 303.15 K [mPa·s]
x1 = 0.1009 | 1048.36 | 1038.85 | 4.543 | 3.24
x1 = 0.2014 | 1276.63 | 1265.1 | 5.078 | 3.639
x1 = 0.3004 | 1497.47 | 1484.08 | 5.653 | 4.078
x1 = 0.4003 | 1716.5 | 1701.36 | 6.278 | 4.563
x1 = 0.5014 | 1934.64 | 1917.88 | 6.942 | 5.089
x1 = 0.6001 | 2144.16 | 2125.93 | 7.621 | 5.631
x1 = 0.7001 | 2353.22 | 2333.58 | 8.346 | 6.217
x1 = 0.7998 | 2558.61 | 2537.64 | 9.119 | 6.846
x1 = 0.8997 | 2761.73 | 2739.49 | 9.968 | 7.555
x1 = 1 | 2963.2 | 2939.86 | 10.94 | 8.413

BrC(Br)C(Br)Br [1,1,2,2-tetrabromoethane] + CCCCCCCCCCO
[1]
Settings | mass density, 293.15 K [kg/m3] | mass density, 303.15 K [kg/m3] | viscosity, 293.15 K [mPa·s] | viscosity, 303.15 K [mPa·s]
x1 = 0.1023 | 968.19 | 960.09 | 14.09 | 9.449
x1 = 0.202 | 1114.37 | 1104.97 | 13.66 | 9.246
x1 = 0.3012 | 1272.36 | 1261.57 | 13.24 | 9.048
x1 = 0.4012 | 1446.62 | 1434.34 | 12.82 | 8.863
x1 = 0.5007 | 1636.66 | 1622.78 | 12.43 | 8.701
x1 = 0.6006 | 1847.04 | 1831.45 | 12.06 | 8.57
x1 = 0.7011 | 2081.74 | 2064.32 | 11.74 | 8.482
x1 = 0.8006 | 2340.68 | 2321.36 | 11.45 | 8.437
x1 = 0.9006 | 2632.79 | 2611.47 | 11.19 | 8.422
x1 = 1 | 2963.2 | 2939.86 | 10.94 | 8.413

CCCCCCCCO [octan-1-ol]
Settings | refractive index
[2] | 1.42958

[3]
Settings | mass density [kg/m3] | viscosity [mPa·s]
293.15 K | 824.99 | 9.219
303.15 K | 818.09 | 6.358
